Reference: patent US11376228B2 (Genifarm Laboratories Inc, priority 2018, dated 2022)
Read-outs that look alike come from different tables or passages of the source.

Tests used:
Format in all cases: cell-based
[1] = test system: human prostate cancer cells PC3; assay: MTT assay, proliferation of human prostate cancer cells PC3; conditions: for IC50: Homo sapiens, 48 h, read-out: IC50 on the proliferation of human prostate cancer cells PC3; for inhibitory effects on human prostate cancer cells PC3 (in words): PC3, summary of Table 4; for effect compared with control gossypol I-A9, PC3: PC3, versus gossypol I-A9
[2] = test system: human lung cancer cells A549; assay: MTT assay, proliferation of human lung cancer cells A549; conditions: for inhibitory effects on human lung cancer cells A549 (in words): A549, summary of Table 3; for effect compared with control gossypol I-A9, A549: A549, versus gossypol I-A9; for IC50: Homo sapiens, read-out: IC50 on the proliferation of human lung cancer cells A5499
Method: (§1) The original culture medium for human lung cancer cells A549 was removed, and human lung cancer cells A549 were rinsed with 2 mL of phosphate buffer saline (PBS), digested with 0.5 mL of pancreatic enzyme for 3 min. 2 mL of culture medium was added to the cells and the mixture was transferred to a centrifuge tube. The mixture was centrifuged (200 g) for 5 min. The supernatant was removed. 2 mL of culture medium was sprayed five times to the remaining solution. 0.5 mL of cell suspension was transferred to an Eppendorf (EP) tube and the cells were counted. The cells were cultured on a 96-well plate, each well having 2000 cells, 3 wells for each compound. The numbers of the required cells and wells and the amount of culture medium were calculated. The cells were diluted by the culture medium. 100 μL culture medium was added to each well and were evenly dispersed, each well containing 2000 cells. The cells were transferred to the wells using a pipette, and cultured in an incubator.
(§2) (2) Adding Compounds to Culture Medium
(§3) The original culture medium was discarded, and the mother liquor of each compound was diluted to final concentrations of 0, 5, 10, 20, 30, 60 and 80 μM, respectively. Each diluent was uniformized. To each head of a multichannel pipette, 100 μL of the diluent was introduced. Three heads were employed. The diluents were added to 3 marked wells (the cells were undamaged) of a tilted 96-well plate, respectively. Different concentrations of diluents were added to three different marked wells and evenly mixed by alternately sucking and blowing with the multichannel pipette 3 times. The 96-well plate was shaken slightly twice, and cultured in a CO2 incubator.
(§4) The cells were cultured in different compounds for 48 h and were then detected. Specifically, a clean bench was turned on for 15 min, and phosphate buffer saline (PBS) was pre-heated in a warm water bath for 15 min. MTT was taken out of a refrigerator at −20 degrees, protected from light and thawed (MTT stock solution was 5 mg/mL). MTT and a culture medium were mixed evenly in a V-shaped groove to yield a mixture comprising 500 μg/mL MTT and a culture medium (a volume ratio thereof being 1:10). 100 μL of the prepared MTT mixture was added to each well of the 96-well plate using the multichannel pipette, and then incubated at 37° C. for an appropriate time (1 h), thereby reducing the MTT to formazan (purple crystals formed in the cells under a microscope, which were different in medicated cells and unmedicated cells). The upper liquid was removed with a white pipette tip attached to a vacuum pump. For each concentration of the compounds, 3 pipette tips were employed. After the incubation, the MTT mixture was discarded, and then 100 μL of DMSO was added to each well using the multichannel pipette. The 96-well plate was shaken in a shaker for 10 min (until the purple crystals were dissolved in the cells under the microscope).
The absorbance value of the resulting solution was detected at a wavelength of 550 nm with a microplate reader. The survival rate of cells treated with different concentrations of drugs was calculated in accordance with the requirements to make a scatter plot. The IC50 results of each compound on the proliferation of human lung cancer cells A549 were shown in Table 3, where Gossypol I-A9 is a control sample.

[3] = test system: human ovarian cancer cells SKOV3; assay: MTT assay, proliferation of human ovarian cancer cells SKOV3; conditions: for IC50: Homo sapiens, read-out: IC50 on the proliferation of human ovarian cancer cells SKOV3; for inhibitory effects on human ovarian cancer cells SKOV3 (in words): SKOV3, summary of Table 2; for effect compared with control gossypol I-A9, SKOV3: SKOV3, versus gossypol I-A9
Method: as §1, with “ovarian” for “lung”, “SKOV3” for “A549”
as §2
as §3, with “1, 2, 4, 8” for “5, 10, 20, 30, 60”, “16” for “80”
as §4
The absorbance value of the resulting solution was detected at a wavelength of 550 nm with a microplate reader. The survival rate of cells treated with different concentrations of drugs was calculated in accordance with the requirements to make a scatter plot. The IC50 results of each compound on the proliferation of human ovarian cancer cells SKOV3 were shown in Table 2, wherein Gossypol I-A9 is a control sample.

[4] = test system: human gastric cancer cells MKN45; assay: MTT assay, proliferation of human gastric cancer cells MKN45; conditions: for IC50: Homo sapiens, read-out: IC50 on the proliferation of human gastric cancer cells MKN45; for inhibitory effects on human gastric cancer cells MKN45 (in words): MKN45, summary of Table 1
Method: as §1, with “gastric” for “lung”, “MKN45” for “A549”
as §2
as §3, with “15,” for “10, 20,”, “30, 45 and” for “30,”, “60” for “60 and 80”
as §4
The absorbance value of the cells was measured at a wavelength of 550 nm with a microplate reader. The survival rate of the cells treated with different concentrations of compounds was calculated to make a scatter plot. The IC50 results of each compound on the proliferation of human gastric cancer cells MKN45 were shown in Table 1, where Gossypol I-A9 is a control sample.

[5] = SK-OV-3, SKOV3, MTT, 48 h, 0-16 μM

Structure (SMILES)	IC50 ([1]; PC3, MTT, 0-32 μM) [µM]	inhibitory effects on human prostate cancer cells PC3 (in words) [1]	effect compared with control gossypol I-A9, PC3 [1]	inhibitory effects on human lung cancer cells A549 (in words) [2]	effect compared with control gossypol I-A9, A549 [2]	IC50 ([2]; A549, MTT, 48 h, 0-80 μM) [µM]	IC50 [3, 5] [µM]	inhibitory effects on human ovarian cancer cells SKOV3 (in words) [3]	also measured
COc1ccc(-c2c(C)c(O)c(O)c(C=O)c2COCc2ccccc2)cc1 [Compound I-29]	4.26	significant inhibitory effects	superior than the gossypol I-A9	inhibitory effects	slightly inferior to that of the Gossypol I-A9	42.1			
COc1cc(OC)c(Cc2c(C#Cc3ccccc3)c(C)c(O)c(O)c2C=O)c(OC)c1 [I-A5]	4.19	significant inhibitory effects	superior than the gossypol I-A9				9.79	significant inhibitory effects	
COC(=O)c1ccc(-c2c(C)c(O)c(O)c(C=O)c2Cc2c(OC)cc(OC)cc2OC)cc1 [Compound I-49]	13.1	significant inhibitory effects					5.92	significant inhibitory effects	effect compared with control gossypol I-A9, SKOV3 [3]: superior to that of the gossypol I-A9; IC50 ([4]; MKN-45, MKN45, MTT, 48 h, 0-60 μM): 3.12 µM; inhibitory effects on human gastric cancer cells MKN45 (in words) [4]: significant inhibitory effects; effect compared with control gossypol I-A9, MKN45 ([4]; MKN45, versus gossypol I-A9): better than the control gossypol I-A9
Cc1cc2c(C(C)C)c(O)c(O)c(C=O)c2c(O)c1-c1c(C)cc2c(C(C)C)c(O)c(O)c(C=O)c2c1O [I-A9, gossypol, reference compound]									IC50 ([3]; SK-OV-3, 48 h): 9.55 µM; IC50 ([4]; MKN-45, 48 h): 15.4 µM; IC50 [1]: 10 µM; IC50 ([2]; A549, 48 h): 18.1 µM
Cc1cc(C)cc(-c2c(C)c(O)c(O)c(C=O)c2COCc2ccccc2)c1 [Compound I-45]	6.57	significant inhibitory effects	superior than the gossypol I-A9	inhibitory effects	slightly inferior to that of the Gossypol I-A9	26			
COc1cccc2c(OC)c(Cc3cc(C)c(O)c(O)c3C=O)ccc12 [I-A3]	6.54	significant inhibitory effects	superior than the gossypol I-A9				6.45	significant inhibitory effects	effect compared with control gossypol I-A9, SKOV3 [3]: superior to that of the gossypol I-A9
C#CCOCc1c(C=O)c(O)c(O)c(C)c1-c1ccccc1 [I-A2]	5	significant inhibitory effects	superior than the gossypol I-A9				11.5	significant inhibitory effects	
Cc1c(O)c(O)c(C=O)c(COCc2ccccc2)c1-c1ccccc1C#N [Compound I-28]				inhibitory effects	slightly inferior to that of the Gossypol I-A9	67.6			
Cc1cc(CSCc2ccccc2)c(C=O)c(O)c1O [I-A4]				inhibitory effects	slightly inferior to that of the Gossypol I-A9	58.9			
COc1cc(OC)c(Cc2cc(C)c(O)c(O)c2CO)c(OC)c1 [Compound I-97]							≥ 35		inhibitory effects on human gastric cancer cells MKN45 (in words) [4]: significant inhibitory effects
